Data published in PubChem BioAssay (NCI).
Values joined by “and” are separate entries in the source; they are usually repeats but may differ in a detail not shown here. Equal entries are not always repeated.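 Cells were grown in 96-well plates and exposed to each compound for 48 hours at five concentrations; endpoints were interpolated linearly between bracketing concentrations, or set to the highest concentration if not reached. The concentration for 50% growth inhibition is given as GI50. TGI marks complete inhibition of growth.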

Assays:
Experiment in all cases: growth of human tumour cells (NCI), 48 h
MDA-N = test system: MDA-N
DLD-1 colon = test system: DLD-1 colon
DMS 114 small cell lung = test system: DMS 114 small cell lung
DMS 273 small cell lung = test system: DMS 273 small cell lung
RXF-631 renal = test system: RXF-631 renal
XF 498 CNS = test system: XF 498 CNS
HOP-18 NSCLC = test system: HOP-18 NSCLC

Row | Structure (SMILES) | TGI (MDA-N) | TGI (DLD-1 colon) [µM] | TGI (DMS 114 small cell lung) [µM] | TGI (DMS 273 small cell lung) [µM] | TGI (RXF-631 renal) [µM] | TGI (XF 498 CNS) [µM] | TGI (HOP-18 NSCLC) [µM] | GI50 (MDA-N) [µM]
1 | Cc1nc2cccc([N+](=O)[O-])c2c(NCCCN(C)C)c1C | > 100 µM |  |  |  |  |  |  | 
2 | O=C(O)Cn1ccc(=O)c2ccc([N+](=O)[O-])cc21 | > 100 µM |  |  |  |  |  |  | 
3 | O=C1NNC=Nc2ccc(cc2)S(=O)(=O)c2ccc(cc2)N=CNNC1=O | > 100 µM |  |  |  |  |  |  | 
4 | CN(C(=O)C12C3C4C1C1C2C3C41C(=O)C(C)(C)C)C(C)(C)C (stereo not given) |  | > 100 | > 100 | > 100 | > 100 | > 100 |  | 
5 | N#CC(C(=N/O)/C(=N/O)C(C#N)c1ccc(Cl)cc1)c1ccc(Cl)cc1 (stereo not given) |  | > 100 | > 100 | > 100 |  | > 100 | > 100 | 
6 | CCCCNC1=C(C(=O)OCC)C(=O)CO1 |  | > 100 | > 100 | > 100 |  | > 100 | > 100 | 
7 | CN(C)CCC(=O)N1C/C(=C/c2ccccc2)C(=O)/C(=C\c2ccccc2)C1 | 3.71 µM | 3.25 | 4.1 | 3.26 | 10.6 | 6.69 | 10.9 | 
8 | CC1(Cl)C(=O)NC(=O)N(C2CC(N=[N+]=[N-])C(CO)O2)C1N=[N+]=[N-] (stereo not given) |  | > 100 | > 100 | > 100 | > 100 | > 100 |  | 
9 | COC(=O)C1=C(C(=O)OC)C2C=CC1C1C(Cl)=C(Cl)C21 (stereo not given) |  | > 100 | > 100 | > 100 | > 100 |  | > 100 | 
10 | COc1ccc2[nH]c3c(C)c4c(c(C)c3c2c1)CN(C)CC4 |  | 93.7 | 33.8 | 29.6 | 58.4 |  | 31.3 | 
11 | COC(=O)CC(=O)C[P+](c1ccccc1)(c1ccccc1)c1ccccc1 |  | > 218 | > 218 | > 218 | > 218 | 201 | > 218 | 
12 | CCCCCCCCCC[C@@H](O)[C@@H]1CC[C@H]([C@H]2CC[C@@H]([C@@H](O)CCCCCCCCCC[C@H]3CC(CC(C)=O)C(=O)O3)O2)O1 (stereo not given in full) |  | 83 | 19 | 32.8 | 38.3 |  |  | 
13 | CC12CC[C@@H](C(C)(C)O)C1[C@@H](O)CC1(C)C2CCC2[C@@]3(C)CC[C@H](O)C(C)(C)C3C(O)C[C@]21C (stereo not given in full) |  | 53.3 | 38.2 |  | 69 |  | 41.1 | 
14 | COc1cnc2cc(C(=O)O)c3c([N+](=O)[O-])cccc3c2c1 | > 100 µM |  |  |  |  |  |  | 
15 | CCOc1ccc2c(c1)[n+]([O-])c(S(=O)(=O)c1ccc(C)cc1)c(N)[n+]2[O-] |  | > 100 | > 100 |  |  |  | > 100 | 
16 | Cc1ccc(C)c(NC(=O)CC/C(=N\NC(=O)C(=O)NN)C(C)C(=O)c2ccc(O)cc2)c1 (stereo not given) |  | > 100 |  | > 100 |  |  | > 100 | 
17 | CCOC(=O)CCc1cc(=O)oc2cc(O)cc(O)c12 | > 100 µM |  |  |  |  |  |  | 
18 | COC(=O)CC(C(C(=O)OC)C(=O)OC)N1C(=O)OCC1c1ccccc1 (stereo not given) |  | > 100 |  | > 100 | > 100 | > 100 |  | 
19 | CC1=C(C(=O)Nc2ccc([N+](=O)[O-])cc2)C(c2ccc(N(C)C)cc2)C(C(=O)Nc2ccc([N+](=O)[O-])cc2)=C(C)N1 |  | 30 |  |  |  |  |  | 
20 | CC(=O)Nc1ccccc1Sc1ccccc1 |  |  | > 100 | > 100 | > 100 | > 100 | > 100 | 
21 | N#C/C(=C/c1ccsc1)C(=O)c1ccccc1 |  | > 100 | > 100 | > 100 |  | > 100 | > 100 | 
22 | COc1ccccc1C1C(C(=O)Nc2ccccc2)=C(C)NC(C)=C1C(=O)Nc1ccccc1 |  |  | > 100 | > 100 | > 100 | > 100 | > 100 | 

Row | Structure (SMILES) | TGI (MDA-N) | TGI (DLD-1 colon) [µM] | TGI (DMS 114 small cell lung) [µM] | TGI (DMS 273 small cell lung) [µM] | TGI (RXF-631 renal) [µM] | TGI (XF 498 CNS) [µM] | TGI (HOP-18 NSCLC) [µM] | GI50 (MDA-N) [µM]
23 | OCCC1(O)CCC(O)CC1 (stereo not given) |  | > 100 | > 100 | > 100 |  |  | > 100 | 
24 | Cc1ccc(S(=O)(=O)C(CC(=O)N2CCCC2)C(=O)c2ccccc2)cc1 (stereo not given) |  | > 100 | > 100 | > 100 | > 100 | > 100 | > 100 | 
25 | O=c1[nH]n2c(=O)cc[nH]c2c1-c1nnns1 |  | > 100 | > 100 | > 100 |  | > 100 |  | 
26 | Cc1cc2c(cc1C)[n+](=O)c(C(=O)CC(=O)C(=O)Nc1c(C(C)C)cccc1C(C)C)c(C)n2[O-] |  |  | > 100 | > 100 |  | > 100 | > 100 | 
27 | COc1ccc(CNc2cc(OC)c(OC)c(OC)c2)cc1 |  | > 100 | 9.19 | > 100 | > 100 | > 100 | > 94.6 | 
28 | O=NN(Cc1ccc(Cl)cc1)C(C(=O)O)c1ccccc1 (stereo not given) | > 100 µM |  |  |  |  |  |  | 
29 | CNC(=O)OCc1c(COC(=O)NC)c(-c2ccc(Cl)c(Cl)c2)n2c1SCC2 | 42.7 µM |  |  |  |  |  |  | 
30 | CC1(C)CC(/C=C2/OC(=O)c3ccccc32)=C(C#N)C(=O)O1 |  | > 100 |  | > 100 | > 100 | > 100 |  | 
31 | COc1cccc(-c2cc(=O)c3cc(N(C)C)ccc3[nH]2)c1 | 0.00774 µM and 0.00529 µM |  |  |  |  |  |  | 0.00154
32 | CCCCN(CCCC)C(=O)C(=O)C(C#N)c1ccc(C)cc1 (stereo not given) |  | > 100 | > 100 | > 100 |  | > 100 | > 100 | 
33 | CC1OC(n2cc(F)c(=O)[nH]c2=O)CCC1O (stereo not given) | > 100 µM | > 100 |  | > 100 |  |  | > 100 | 
34 | Cc1cc(N(CCOS(C)(=O)=O)CCOS(C)(=O)=O)ccc1C=Nc1ccc(-c2nc(Cc3ccccc3)sc2C)cc1 | 29 µM | 31.9 | 27.7 | 21.7 |  | 9.12 | 23.4 | 
35 | Cc1nc2c(nc1Cl)nc(Oc1ccc(Cl)cc1)c1ccccc12 |  | > 100 | > 100 | > 100 | > 100 | > 100 |  | 
36 | CC1CCC2(C(=O)O)CCC3(C)C(=CCC4C5(C)CC(O)C(O)C(C)(CO)C5C(O)CC43C)C2C1C (stereo not given) | > 57.6 µM |  |  |  |  |  |  | 
38 | CCOC(=O)/C=C(/C(=O)OCC)n1cc(Cl)c(=O)n(CC(=O)OCC)c1=O | 11.9 µM and 31.4 µM |  |  |  |  |  |  | 16.4
39 | O=C1CNCCCN2CCN(CCCNCC(=O)Nc3ccc(cc3)S(=O)(=O)c3ccc(cc3)NC(=O)CNCCCN3CCN(CCCNCC(=O)Nc4ccc(cc4)S(=O)(=O)c4ccc(cc4)N1)CC3)CC2 | 42.2 µM |  |  |  |  |  |  | 
40 | COC(=O)C(/C(=N/NC(N)=O)C(=O)Nc1ccc(C)cc1)c1nc2ccc([N+](=O)[O-])cc2[nH]c1=O (stereo not given) | > 100 µM |  |  |  |  |  |  | 
41 | CCCCCCCCCCCCCC(=O)OC1CC(=O)OC1CO (stereo not given) |  | > 100 | > 100 | > 100 |  | > 100 | 92.3 | 
42 | COc1ccc2ccc3c(c2c1)CN1CCc2cc(OC)c(OC)cc2C1C3 (stereo not given) |  | > 100 | > 100 | > 100 | > 100 | > 100 | > 100 | 
43 | Clc1ccc(C2N3CCCCC3[C@@H]3c4[nH]c5ccccc5c4CCN23)cc1 (stereo not given in full) |  | > 100 | > 100 | > 100 |  | > 100 | > 100 | 
